Experimental data taken from paper PMC6977461 (Chemical Science, 2019).
pEC50: −log10 of the molar value. Like-named read-outs stand apart in the source and are kept apart here.

Key:
mouse GLP-1 receptor = biological target: T1, mouse GLP-1 receptor (Mus musculus, UniProt O35659); assay: cAMP production in βTC6 cells expressing GLP-1R endogenously (Method C2); type: cell-based; details: for Potency (%), Table S1: from EC50 in βTC6 cAMP assay, footnote: compare to GLP-1-NH2 (2)
T1 construct: βTC6 cells which express GLP-1R endogenously; host or cells: βTC6 cells
T1 sequence (O35659 22-463): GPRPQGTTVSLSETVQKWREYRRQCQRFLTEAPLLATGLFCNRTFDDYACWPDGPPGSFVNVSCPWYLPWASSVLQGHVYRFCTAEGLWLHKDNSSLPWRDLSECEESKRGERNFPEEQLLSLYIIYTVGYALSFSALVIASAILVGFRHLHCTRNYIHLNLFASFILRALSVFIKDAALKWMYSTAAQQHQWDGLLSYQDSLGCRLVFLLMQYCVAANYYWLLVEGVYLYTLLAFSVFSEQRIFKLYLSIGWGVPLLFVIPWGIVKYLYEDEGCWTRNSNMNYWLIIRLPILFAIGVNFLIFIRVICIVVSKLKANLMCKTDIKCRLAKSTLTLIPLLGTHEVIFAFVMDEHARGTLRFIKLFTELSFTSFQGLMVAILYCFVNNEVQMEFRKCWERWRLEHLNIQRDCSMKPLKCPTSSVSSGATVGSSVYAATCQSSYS

[1] = mouse plasma degradation assay (Methods MP1-MP3); type: in vitro ADME; details: mouse, plasma, pH 7.4
Description: The oligomer was then diluted 1/50 with a solution of plasma/PBS pH 7.4 (1/1) to afford a final concentration of 5μM and incubated at 37°C. […] (t = 0 min was determined using the reaction without plasma). The samples were frozen at -80°C before analysis. […] The supernatant was analyzed by LC-MS. The time course of oligomer degradation was determined by integrating the area of the peak in the extracted ion chromatogram. […] The oligomer was then diluted 1/50 with a solution of plasma/PBS pH 7.4 (1/1) to afford a final concentration of 5μM and incubated at 37°C. […] The oligomer was then diluted 1/50 with a solution of plasma/PBS pH 7.4 (1/1) to afford a final concentration of 5μM and incubated at 37°C. […] Animals. […] A standard chow diet (RM1 (E) 801492, SDS) and tap water were provided ad libitum. All animal protocols done by Physiogenex S.A.S were reviewed and approved by the local (Comité […] national ([…]

[2] = read-out: EC50 (GLP-1R potency), Table S1

SMILES	Potency (%), Table S1 (mouse GLP-1 receptor)	pEC50 (mouse GLP-1 receptor; [2])	pEC50 (mouse GLP-1 receptor)	half-life at 5 µM [1]
CC[C@H](C)[C@H](NC(=O)[C@H](Cc1ccccc1)NC(=O)[C@H](CCC(=O)O)NC(=O)[C@H](CCCCN)NC(=O)[C@H](C)NC(=O)[C@H](C)NC(=O)[C@H](CCC(N)=O)NC(=O)CNC(=O)[C@H](CCC(=O)O)NC(=O)[C@H](CC(C)C)NC(=O)[C@H](Cc1ccc(O)cc1)NC(=O)[C@H](CO)NC(=O)[C@H](CO)NC(=O)[C@@H](NC(=O)[C@H](CC(=O)O)NC(=O)[C@H](CO)NC(=O)[C@@H](NC(=O)[C@H](Cc1ccccc1)NC(=O)[C@@H](NC(=O)CNC(=O)[C@H](CCC(=O)O)NC(=O)NC[C@H](CCC(=O)O)NC(=O)[C@@H](N)Cc1c[nH]cn1)[C@@H](C)O)[C@@H](C)O)C(C)C)C(=O)N[C@@H](C)C(=O)N[C@@H](Cc1c[nH]c2ccccc12)C(=O)N[C@@H](CC(C)C)C(=O)N[C@H](C(=O)N[C@@H](CCCCN)C(=O)NCC(=O)N[C@@H](CCCNC(=N)N)C(=O)NCC(N)=O)C(C)C [S5]	< 0.01%	< 5.00		
CC[C@H](C)[C@H](NC(=O)[C@H](Cc1ccccc1)NC(=O)[C@H](CCC(=O)O)NC(=O)[C@H](CCCCN)NC(=O)[C@H](C)NC(=O)[C@H](C)NC(=O)[C@H](CCC(N)=O)NC(=O)CNC(=O)[C@H](CCC(=O)O)NC(=O)[C@H](CC(C)C)NC(=O)[C@H](Cc1ccc(O)cc1)NC(=O)[C@H](CO)NC(=O)[C@H](CO)NC(=O)[C@@H](NC(=O)[C@H](CC(=O)O)NC(=O)[C@H](CO)NC(=O)[C@@H](NC(=O)[C@H](Cc1ccccc1)NC(=O)[C@@H](NC(=O)CNC(=O)[C@H](CCC(=O)O)NC(=O)NC[C@@H](NC(=O)[C@@H](N)Cc1c[nH]cn1)[C@@H](C)CC)[C@@H](C)O)[C@@H](C)O)C(C)C)C(=O)N[C@@H](C)C(=O)N[C@@H](Cc1c[nH]c2ccccc12)C(=O)N[C@@H](CC(C)C)C(=O)N[C@H](C(=O)N[C@@H](CCCCN)C(=O)NCC(=O)N[C@@H](CCCNC(=N)N)C(=O)NCC(N)=O)C(C)C [S6]	< 0.01%	< 5.00		
CC[C@H](C)[C@H](NC(=O)[C@H](Cc1ccccc1)NC(=O)[C@H](CCC(=O)O)NC(=O)[C@H](CCCCN)NC(=O)[C@H](C)NC(=O)[C@H](C)NC(=O)[C@H](CCC(N)=O)NC(=O)CNC(=O)[C@H](CCC(=O)O)NC(=O)[C@H](CC(C)C)NC(=O)[C@H](Cc1ccc(O)cc1)NC(=O)[C@H](CO)NC(=O)[C@H](CO)NC(=O)[C@@H](NC(=O)[C@H](CC(=O)O)NC(=O)[C@H](CO)NC(=O)[C@@H](NC(=O)[C@H](Cc1ccccc1)NC(=O)[C@@H](NC(=O)CNC(=O)[C@H](CCC(=O)O)NC(=O)NC[C@H](CC(C)C)NC(=O)[C@@H](N)Cc1c[nH]cn1)[C@@H](C)O)[C@@H](C)O)C(C)C)C(=O)N[C@@H](C)C(=O)N[C@@H](Cc1c[nH]c2ccccc12)C(=O)N[C@@H](CC(C)C)C(=O)N[C@H](C(=O)N[C@@H](CCCCN)C(=O)NCC(=O)N[C@@H](CCCNC(=N)N)C(=O)NCC(N)=O)C(C)C [S7]	< 0.01%	< 5.00		
CC[C@H](C)[C@H](NC(=O)[C@H](Cc1ccccc1)NC(=O)[C@H](CCC(=O)O)NC(=O)[C@H](CCCCN)NC(=O)[C@H](C)NC(=O)[C@H](C)NC(=O)[C@H](CCC(N)=O)NC(=O)CNC(=O)[C@H](CCC(=O)O)NC(=O)[C@H](CC(C)C)NC(=O)[C@H](Cc1ccc(O)cc1)NC(=O)[C@H](CO)NC(=O)[C@H](CO)NC(=O)[C@@H](NC(=O)[C@H](CC(=O)O)NC(=O)[C@H](CO)NC(=O)[C@@H](NC(=O)[C@H](Cc1ccccc1)NC(=O)[C@@H](NC(=O)CNC(=O)[C@H](CCC(=O)O)NC(=O)NC[C@H](CCCCN)NC(=O)[C@@H](N)Cc1c[nH]cn1)[C@@H](C)O)[C@@H](C)O)C(C)C)C(=O)N[C@@H](C)C(=O)N[C@@H](Cc1c[nH]c2ccccc12)C(=O)N[C@@H](CC(C)C)C(=O)N[C@H](C(=O)N[C@@H](CCCCN)C(=O)NCC(=O)N[C@@H](CCCNC(=N)N)C(=O)NCC(N)=O)C(C)C [S8]	< 0.01%	< 5.00		
CC[C@H](C)[C@H](NC(=O)[C@H](Cc1ccccc1)NC(=O)[C@H](CCC(=O)O)NC(=O)[C@H](CCCCN)NC(=O)[C@H](C)NC(=O)[C@H](C)NC(=O)[C@H](CCC(N)=O)NC(=O)CNC(=O)[C@H](CCC(=O)O)NC(=O)[C@H](CC(C)C)NC(=O)[C@H](Cc1ccc(O)cc1)NC(=O)[C@H](CO)NC(=O)[C@H](CO)NC(=O)[C@@H](NC(=O)[C@H](CC(=O)O)NC(=O)[C@H](CO)NC(=O)[C@@H](NC(=O)[C@H](Cc1ccccc1)NC(=O)[C@@H](NC(=O)CNC(=O)[C@H](CCC(=O)O)NC(=O)NC[C@H](Cc1ccccc1)NC(=O)[C@@H](N)Cc1c[nH]cn1)[C@@H](C)O)[C@@H](C)O)C(C)C)C(=O)N[C@@H](C)C(=O)N[C@@H](Cc1c[nH]c2ccccc12)C(=O)N[C@@H](CC(C)C)C(=O)N[C@H](C(=O)N[C@@H](CCCCN)C(=O)NCC(=O)N[C@@H](CCCNC(=N)N)C(=O)NCC(N)=O)C(C)C [S9]	21%	9.30		
CC[C@H](C)[C@H](NC(=O)[C@H](Cc1ccccc1)NC(=O)[C@H](CCC(=O)O)NC(=O)[C@H](CCCCN)NC(=O)[C@H](C)NC(=O)[C@H](C)NC(=O)[C@H](CCC(N)=O)NC(=O)CNC(=O)[C@H](CCC(=O)O)NC(=O)[C@H](CC(C)C)NC(=O)[C@H](Cc1ccc(O)cc1)NC(=O)[C@H](CO)NC(=O)[C@H](CO)NC(=O)[C@@H](NC(=O)[C@H](CC(=O)O)NC(=O)[C@H](CO)NC(=O)[C@@H](NC(=O)[C@H](Cc1ccccc1)NC(=O)[C@@H](NC(=O)CNC(=O)[C@H](CCC(=O)O)NC(=O)NC[C@@H](NC(=O)[C@@H](N)Cc1c[nH]cn1)[C@@H](C)O)[C@@H](C)O)[C@@H](C)O)C(C)C)C(=O)N[C@@H](C)C(=O)N[C@@H](Cc1c[nH]c2ccccc12)C(=O)N[C@@H](CC(C)C)C(=O)N[C@H](C(=O)N[C@@H](CCCCN)C(=O)NCC(=O)N[C@@H](CCCNC(=N)N)C(=O)NCC(N)=O)C(C)C [S10]	3%	8.48		
CC[C@H](C)[C@H](NC(=O)[C@H](Cc1ccccc1)NC(=O)[C@H](CCC(=O)O)NC(=O)[C@H](CCCCN)NC(=O)[C@H](C)NC(=O)[C@H](C)NC(=O)[C@H](CCC(N)=O)NC(=O)CNC(=O)[C@H](CCC(=O)O)NC(=O)[C@H](CC(C)C)NC(=O)[C@H](Cc1ccc(O)cc1)NC(=O)[C@H](CO)NC(=O)[C@H](CO)NC(=O)[C@@H](NC(=O)[C@H](CC(=O)O)NC(=O)[C@H](CO)NC(=O)[C@@H](NC(=O)[C@H](Cc1ccccc1)NC(=O)[C@@H](NC(=O)CNC(=O)[C@H](CCC(=O)O)NC(=O)NC[C@H](Cc1c[nH]c2ccccc12)NC(=O)[C@@H](N)Cc1c[nH]cn1)[C@@H](C)O)[C@@H](C)O)C(C)C)C(=O)N[C@@H](C)C(=O)N[C@@H](Cc1c[nH]c2ccccc12)C(=O)N[C@@H](CC(C)C)C(=O)N[C@H](C(=O)N[C@@H](CCCCN)C(=O)NCC(=O)N[C@@H](CCCNC(=N)N)C(=O)NCC(N)=O)C(C)C [S11]	5%		8.66	
CC[C@H](C)[C@H](NC(=O)[C@H](Cc1ccccc1)NC(=O)[C@H](CCC(=O)O)NC(=O)[C@H](CCCCN)NC(=O)[C@H](C)NC(=O)[C@H](C)NC(=O)[C@H](CCC(N)=O)NC(=O)CNC(=O)[C@H](CCC(=O)O)NC(=O)[C@H](CC(C)C)NC(=O)[C@H](Cc1ccc(O)cc1)NC(=O)[C@H](CO)NC(=O)[C@H](CO)NC(=O)[C@@H](NC(=O)[C@H](CC(=O)O)NC(=O)[C@H](CO)NC(=O)[C@@H](NC(=O)[C@H](Cc1ccccc1)NC(=O)[C@@H](NC(=O)CNC(=O)[C@H](CCC(=O)O)NC(=O)CNC(=O)[C@@H](N)Cc1c[nH]cn1)[C@@H](C)O)[C@@H](C)O)C(C)C)C(=O)N[C@@H](C)C(=O)N[C@@H](Cc1c[nH]c2ccccc12)C(=O)N[C@@H](CC(C)C)C(=O)N[C@H](C(=O)N[C@@H](CCCCN)C(=O)NCC(=O)N[C@@H](CCCNC(=N)N)C(=O)NCC(N)=O)C(C)C [S12, reference compound]	42%			
CC[C@H](C)[C@H](NC(=O)[C@H](Cc1ccccc1)NC(=O)[C@H](CCC(=O)O)NC(=O)[C@H](CCCCN)NC(=O)[C@H](C)NC(=O)[C@H](C)NC(=O)[C@H](CCC(N)=O)NC(=O)CNC(=O)[C@H](CCC(=O)O)NC(=O)[C@H](CC(C)C)NC(=O)[C@H](Cc1ccc(O)cc1)NC(=O)[C@H](CO)NC(=O)[C@H](CO)NC(=O)[C@@H](NC(=O)[C@H](CC(=O)O)NC(=O)[C@H](CO)NC(=O)[C@@H](NC(=O)[C@H](Cc1ccccc1)NC(=O)[C@@H](NC(=O)CNC(=O)[C@H](CCC(=O)O)NC(=O)[C@H](C)NC(=O)[C@@H](N)Cc1cnc[nH]1)[C@@H](C)O)[C@@H](C)O)C(C)C)C(=O)N[C@@H](C)C(=O)N[C@@H](Cc1c[nH]c2ccccc12)C(=O)N[C@@H](CC(C)C)C(=O)N[C@H](C(=O)N[C@@H](CCCCN)C(=O)NCC(=O)N[C@@H](CCCNC(=N)N)C(=O)NCC(N)=O)C(C)C [compound 2, GLP-1-NH2, reference compound]				8.4 min
